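Interpolation was linear, between the two tested concentrations surrounding the appropriate level; five concentrations were tested over 48 hours in 96-well plates. Abbreviation: GI50, concentration required for 50% inhibition of growth.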 Activity calls are given as the source filed them. No stated cut-off is given here; in the data, active = GI50 up to about 1.1 µM and inactive = higher.
Tests used:
Test in all cases: NCI tumour cell line growth inhibition, 48 h
SF-268 = tested on: SF-268
HCT-15 = tested on: HCT-15
PC-3 = tested on: PC-3
RPMI-8226 = tested on: RPMI-8226
SNB-75 = tested on: SNB-75
LOX IMVI = tested on: LOX IMVI
MCF7 = tested on: MCF7
UACC-257 = tested on: UACC-257
HCT-116 = tested on: HCT-116
NCI/ADR-RES = tested on: NCI/ADR-RES
Malme-3M = tested on: Malme-3M
U-251 = tested on: U-251
UO-31 = tested on: UO-31
SK-OV-3 = tested on: SK-OV-3
OVCAR-3 = tested on: OVCAR-3
HT-29 = tested on: HT-29
SN12C = tested on: SN12C
NCI-H460 = tested on: NCI-H460
OVCAR-8 = tested on: OVCAR-8
KM12 = tested on: KM12
SF-539 = tested on: SF-539
HL-60 = tested on: HL-60
786-0 = tested on: 786-0
SK-MEL-28 = tested on: SK-MEL-28
MDA-MB-435 = tested on: MDA-MB-435
CCRF-CEM = tested on: CCRF-CEM
K562 = tested on: K562
T47D = tested on: T47D
SR = tested on: SR
MDA-N = tested on: MDA-N
A549 = tested on: A549
A498 = tested on: A498
SK-MEL-5 = tested on: SK-MEL-5
MDA-MB-231 = tested on: MDA-MB-231
NCI-H23 = tested on: NCI-H23
NCI-H522 = tested on: NCI-H522
HOP-62 = tested on: HOP-62
OVCAR-5 = tested on: OVCAR-5
MOLT-4 = tested on: MOLT-4
SW-620 = tested on: SW-620
TK-10 = tested on: TK-10
UACC-62 = tested on: UACC-62
M14 = tested on: M14
SK-MEL-2 = tested on: SK-MEL-2
IGROV-1 = tested on: IGROV-1
ACHN = tested on: ACHN
HOP-92 = tested on: HOP-92
CAKI-1 = tested on: CAKI-1
COLO 205 = tested on: COLO 205
HCC 2998 = tested on: HCC 2998
Hs-578T = tested on: Hs-578T
SF-295 = tested on: SF-295
OVCAR-4 = tested on: OVCAR-4
SNB-19 = tested on: SNB-19
DU-145 = tested on: DU-145
EKVX = tested on: EKVX

SMILES: NCCCN1CCN(CCCNc2ccc3ncn4c5ccccc5c(=O)c2c34)CC1
- GI50 (SF-268): 1.26 µM (inactive)
- GI50 (HCT-15): 4.4 µM
- GI50 (PC-3): 1.69 µM (inactive)
- GI50 (RPMI-8226): 1.52 µM (inactive)
- GI50 (SNB-75): 3.13 µM (inactive)
- GI50 (LOX IMVI): 0.875 µM (active)
- GI50 (MCF7): 1.32 µM (inactive)
- GI50 (UACC-257): 5.97 µM (inactive)
- GI50 (HCT-116): 1.03 µM (active)
- GI50 (NCI/ADR-RES): 13.7 µM (inactive)
- GI50 (Malme-3M): 2.36 µM (inactive)
- GI50 (U-251): 1.02 µM (active)
- GI50 (UO-31): 5.28 µM (inactive)
- GI50 (SK-OV-3): 4.98 µM (inactive)
- GI50 (OVCAR-3): 4.07 µM (inactive)
- GI50 (HT-29): 1.13 µM (inactive)
- GI50 (SN12C): 0.826 µM (active)
- GI50 (NCI-H460): 1.31 µM (inactive)
- GI50 (OVCAR-8): 1.87 µM (inactive)
- GI50 (KM12): 3.29 µM (inactive)
- GI50 (SF-539): 1.42 µM (inactive)
- GI50 (HL-60): 0.861 µM (active)
- GI50 (786-0): 1.29 µM (inactive)
- GI50 (SK-MEL-28): 4.47 µM (inactive)
- GI50 (MDA-MB-435): 1.46 µM (inactive)
- GI50 (CCRF-CEM): 1.41 µM (inactive)
- GI50 (K562): 1.09 µM (active)
- GI50 (T47D): 3.02 µM (inactive)
- GI50 (SR): 1.21 µM (inactive)
- GI50 (MDA-N): 1.45 µM (inactive)
- GI50 (A549): 1.95 µM (inactive)
- GI50 (A498): 1.69 µM (inactive)
- GI50 (SK-MEL-5): 0.791 µM (active)
- GI50 (MDA-MB-231): 0.783 µM (active)
- GI50 (NCI-H23): 2.51 µM (inactive)
- GI50 (NCI-H522): 0.456 µM (active)
- GI50 (HOP-62): 1.71 µM (inactive)
- GI50 (OVCAR-5): 3.61 µM (inactive)
- GI50 (MOLT-4): 1.11 µM (active)
- GI50 (SW-620): 1.32 µM (inactive)
- GI50 (TK-10): 4.2 µM (inactive)
- GI50 (UACC-62): 2.14 µM (inactive)
- GI50 (M14): 2.79 µM (inactive)
- GI50 (SK-MEL-2): 2.8 µM (inactive)
- GI50 (IGROV-1): 1.04 µM (active)
- GI50 (ACHN): 1.49 µM (inactive)
- GI50 (HOP-92): 1.36 µM (inactive)
- GI50 (CAKI-1): 1.14 µM (inactive)
- GI50 (COLO 205): 0.481 µM (active)
- GI50 (HCC 2998): 0.789 µM (active)
- GI50 (Hs-578T): 3.16 µM (inactive)
- GI50 (SF-295): 3.71 µM (inactive)
- GI50 (OVCAR-4): 0.728 µM (active)
- GI50 (SNB-19): 0.887 µM (active)
- GI50 (DU-145): 1.46 µM (inactive)
- GI50 (EKVX): 2.85 µM (inactive)
